This note sets out measurements from patent publication US11739098B2 (BRISTOL-MYERS SQUIBB COMPANY, priority 2017, dated 2023).

What all share (type): cell-based
For one experiment, the target named is T1, human TLR7 (Homo sapiens, UniProt Q9NYK1).
T1 construct: host or cells: HEK-Blue cells (HEK293-derived reporter line)
T1 sequence (Q9NYK1 27-1049): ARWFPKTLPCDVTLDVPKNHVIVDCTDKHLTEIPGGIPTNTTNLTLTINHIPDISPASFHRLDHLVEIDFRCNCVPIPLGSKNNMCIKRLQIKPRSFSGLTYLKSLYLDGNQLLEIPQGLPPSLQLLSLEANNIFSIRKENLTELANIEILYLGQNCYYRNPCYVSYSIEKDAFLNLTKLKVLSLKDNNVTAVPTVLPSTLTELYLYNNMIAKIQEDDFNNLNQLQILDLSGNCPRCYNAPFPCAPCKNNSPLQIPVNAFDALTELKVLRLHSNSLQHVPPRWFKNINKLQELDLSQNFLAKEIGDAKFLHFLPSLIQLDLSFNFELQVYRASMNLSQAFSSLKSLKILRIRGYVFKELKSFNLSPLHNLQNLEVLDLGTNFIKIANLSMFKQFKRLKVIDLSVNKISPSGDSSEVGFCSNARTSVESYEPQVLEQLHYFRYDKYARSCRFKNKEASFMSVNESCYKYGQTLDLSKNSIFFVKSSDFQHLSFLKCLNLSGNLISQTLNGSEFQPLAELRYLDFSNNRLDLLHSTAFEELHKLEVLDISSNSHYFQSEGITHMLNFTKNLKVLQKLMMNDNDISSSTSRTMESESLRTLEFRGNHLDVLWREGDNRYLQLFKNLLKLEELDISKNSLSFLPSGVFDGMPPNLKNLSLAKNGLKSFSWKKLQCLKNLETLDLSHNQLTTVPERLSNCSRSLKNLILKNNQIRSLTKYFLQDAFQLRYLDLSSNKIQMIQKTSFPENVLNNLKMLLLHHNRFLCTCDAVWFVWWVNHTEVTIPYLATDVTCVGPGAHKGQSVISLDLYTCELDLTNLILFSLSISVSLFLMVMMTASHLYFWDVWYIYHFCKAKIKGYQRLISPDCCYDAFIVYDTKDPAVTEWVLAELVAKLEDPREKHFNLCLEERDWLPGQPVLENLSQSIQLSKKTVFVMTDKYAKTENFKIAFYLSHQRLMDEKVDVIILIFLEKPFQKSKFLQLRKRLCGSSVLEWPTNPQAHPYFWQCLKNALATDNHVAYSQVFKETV
In words: TLR7 inhibition reporter assay (HEK-Blue cells, SEAP reporter, gardiquimod stimulation). The conditions noted are these: HEK-Blue cells overexpressing human TLR7, SEAP reporter, gardiquimod 7.5 μM. An outline of the steps: (§1)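 After 22 h at 37 °C, SEAP secretion was measured from human TLR7-, TLR8- or TLR9-expressing HEK-Blue reporter cells given compound (0.05 nM–50 μM) 30 min before agonist: 7.5 μM gardiquimod, 15.9 μM R848 or 5 nM ODN2006 respectively. Percent inhibition referenced to agonist-plus-DMSO and known-inhibitor wells.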

For the next experiment, the target named is T2, human TLR8 (Homo sapiens, UniProt Q9NR97).
T2 construct: host or cells: HEK-Blue cells (HEK293-derived reporter line)
T2 sequence (Q9NR97 27-1041): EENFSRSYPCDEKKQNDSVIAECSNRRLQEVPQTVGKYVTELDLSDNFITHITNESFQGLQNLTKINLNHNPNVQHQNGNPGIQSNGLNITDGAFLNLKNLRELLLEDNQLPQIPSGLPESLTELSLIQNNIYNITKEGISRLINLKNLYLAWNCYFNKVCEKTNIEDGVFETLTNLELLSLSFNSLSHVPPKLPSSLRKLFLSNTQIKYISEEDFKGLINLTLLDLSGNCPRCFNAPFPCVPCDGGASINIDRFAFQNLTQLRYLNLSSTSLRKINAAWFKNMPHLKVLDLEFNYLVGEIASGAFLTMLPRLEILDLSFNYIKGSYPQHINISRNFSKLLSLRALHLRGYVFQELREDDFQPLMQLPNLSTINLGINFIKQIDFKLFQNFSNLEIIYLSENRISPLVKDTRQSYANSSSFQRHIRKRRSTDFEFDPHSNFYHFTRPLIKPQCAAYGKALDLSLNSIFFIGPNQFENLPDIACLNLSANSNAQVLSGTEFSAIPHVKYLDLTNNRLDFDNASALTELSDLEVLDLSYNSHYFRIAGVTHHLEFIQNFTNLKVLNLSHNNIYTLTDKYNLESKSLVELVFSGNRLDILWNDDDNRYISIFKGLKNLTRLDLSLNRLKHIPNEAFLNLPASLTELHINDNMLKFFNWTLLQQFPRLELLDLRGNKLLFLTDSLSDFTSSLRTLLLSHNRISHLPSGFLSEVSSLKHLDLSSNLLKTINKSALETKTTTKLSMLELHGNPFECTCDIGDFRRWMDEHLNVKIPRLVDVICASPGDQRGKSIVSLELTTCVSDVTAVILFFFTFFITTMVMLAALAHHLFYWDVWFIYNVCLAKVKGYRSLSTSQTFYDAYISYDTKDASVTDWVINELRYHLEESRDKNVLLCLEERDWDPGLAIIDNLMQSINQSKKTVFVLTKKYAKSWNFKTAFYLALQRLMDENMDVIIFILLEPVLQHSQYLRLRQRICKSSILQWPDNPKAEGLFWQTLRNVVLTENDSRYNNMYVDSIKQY
In words: TLR8 inhibition reporter assay (HEK-Blue cells, SEAP reporter, R848 stimulation). The conditions noted are these: HEK-Blue cells overexpressing human TLR8, SEAP reporter, R848 15.9 μM. An outline of the steps:
as §1

For another experiment, the target named is T3, human TLR9 (Homo sapiens, UniProt Q9NR96).
T3 construct: host or cells: HEK-Blue cells (HEK293-derived reporter line)
T3 sequence (Q9NR96 26-1032): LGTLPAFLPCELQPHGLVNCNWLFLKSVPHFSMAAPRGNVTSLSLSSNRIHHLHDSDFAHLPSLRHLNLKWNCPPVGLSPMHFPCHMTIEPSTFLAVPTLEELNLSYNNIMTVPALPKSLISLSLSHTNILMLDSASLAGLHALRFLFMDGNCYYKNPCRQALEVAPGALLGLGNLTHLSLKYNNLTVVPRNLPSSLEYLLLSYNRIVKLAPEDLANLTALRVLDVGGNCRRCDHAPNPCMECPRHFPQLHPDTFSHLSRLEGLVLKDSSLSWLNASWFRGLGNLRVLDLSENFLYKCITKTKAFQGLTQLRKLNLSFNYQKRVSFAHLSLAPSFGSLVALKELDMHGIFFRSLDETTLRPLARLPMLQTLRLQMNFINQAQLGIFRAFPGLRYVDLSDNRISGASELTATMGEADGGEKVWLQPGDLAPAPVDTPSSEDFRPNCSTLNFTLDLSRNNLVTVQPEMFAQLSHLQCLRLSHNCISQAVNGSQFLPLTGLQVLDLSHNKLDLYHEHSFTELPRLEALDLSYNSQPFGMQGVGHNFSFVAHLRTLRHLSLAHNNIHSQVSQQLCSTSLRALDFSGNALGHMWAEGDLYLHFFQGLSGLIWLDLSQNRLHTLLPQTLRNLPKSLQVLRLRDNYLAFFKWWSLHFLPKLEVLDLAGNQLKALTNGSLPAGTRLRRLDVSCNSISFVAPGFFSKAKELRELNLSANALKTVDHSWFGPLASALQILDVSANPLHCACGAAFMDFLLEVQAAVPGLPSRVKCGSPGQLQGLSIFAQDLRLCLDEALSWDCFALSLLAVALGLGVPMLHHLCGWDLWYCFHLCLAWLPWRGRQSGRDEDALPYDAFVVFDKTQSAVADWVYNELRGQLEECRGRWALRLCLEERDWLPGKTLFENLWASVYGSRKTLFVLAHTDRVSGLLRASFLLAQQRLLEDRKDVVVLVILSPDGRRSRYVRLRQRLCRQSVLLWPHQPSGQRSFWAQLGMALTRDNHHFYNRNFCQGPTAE
In words: TLR9 inhibition reporter assay (HEK-Blue cells, SEAP reporter, ODN2006 stimulation). To be noted: HEK-Blue cells overexpressing human TLR9, SEAP reporter, ODN2006 5 nM. An outline of the steps: as §1

Bounds are passed on as bounds.

With `Cc1cc2nccn2cc1-c1[nH]c2ccc(C3CCN(CCCN(C)C)CC3)cc2c1C(C)C` [Example 856, 3-(4-(3-isopropyl-2-(7-methylimidazo[1,2-a]pyridin-6-yl)-1H-indol-5-yl)piperidin-1-yl)-N,N-dimethylpropan-1-amine], the IC50 against human TLR7 is less than 100 nM; against human TLR8 it was less than 100 nM; at human TLR9, 100 to 1000 nM.

As to `CC(C)c1c(-c2ccnc3[nH]ncc23)[nH]c2ccc(C3CCN(CCCN4CCOCC4)CC3)cc12` [Example 857, 4-(3-(4-(3-isopropyl-2-(1H-pyrazolo[3,4-b]pyridin-4-yl)-1H-indol-5-yl)piperidin-1-yl)propyl)morpholine], the concentration for half-maximal inhibition (IC50) lay within 1000 to 50000 nM against human TLR7, 1000 to 50000 nM against human TLR8 and 100 to 1000 nM at human TLR9.

On to `CCc1c(-c2ccnc3[nH]ncc23)[nH]c2ccc(C3CCN(Cc4csc(C(C)C)n4)CC3)cc12` [Example 859, 4-((4-(3-ethyl-2-(1H-pyrazolo[3,4-b]pyridin-4-yl)-1H-indol-5-yl)piperidin-1-yl)methyl)-2-isopropylthiazole], for which the 50% inhibitory concentration (IC50) lay in the range of 100 to 1000 nM on human TLR7, 100 to 1000 nM against human TLR8 and 1000 to 50000 nM against human TLR9.

As for `COc1cc(-c2[nH]c3ccc(C4CCN(Cc5cnn[nH]5)CC4)cc3c2C(C)C)nn2ncnc12` [Example 860, 6-(5-(1-((1H-1,2,3-triazol-5-yl)methyl)piperidin-4-yl)-3-isopropyl-1H-indol-2-yl)-8-methoxy-[1,2,4]triazolo[1,5-b]pyridazine], the IC50 against human TLR7 is less than 100 nM; against human TLR8 it was less than 100 nM; against human TLR9 it was 1000 to 50000 nM.

Regarding `Cc1nc[nH]c1CN1CCC(c2ccc3[nH]c(-c4ccnc5[nH]cnc45)c(C(C)C)c3c2)CC1` [Example 861, 7-(3-isopropyl-5-(1-((4-methyl-1H-imidazol-5-yl)methyl)piperidin-4-yl)-1H-indol-2-yl)-3H-imidazo[4,5-b]pyridine], the IC50 at human TLR7 is less than 100 nM; on human TLR8, less than 100 nM; against human TLR9, 100 to 1000 nM.

Regarding `CC(C)c1c(-c2ccnc3[nH]ncc23)[nH]c2ccc(C3CCN(Cc4cn5ccccc5n4)CC3)cc12` [Example 862, 4-(5-(1-(imidazo[1,2-a]pyridin-2-ylmethyl)piperidin-4-yl)-3-isopropyl-1H-indol-2-yl)-1H-pyrazolo[3,4-b]pyridine], the IC50 is less than 100 nM against human TLR7, less than 100 nM at human TLR8 and 1000 to 50000 nM against human TLR9.

For `CCc1c(-c2ccnc3[nH]ncc23)[nH]c2ccc(C3CCN(Cc4cnc[nH]4)CC3)cc12` [Example 863, 4-(5-(1-((1H-imidazol-5-yl)methyl)piperidin-4-yl)-3-ethyl-1H-indol-2-yl)-1H-pyrazolo[3,4-b]pyridine], the IC50 against human TLR7 is 100 to 1000 nM; on human TLR8, less than 100 nM; at human TLR9, 100 to 1000 nM.

For the compound `Cc1nc[nH]c1CN1CCC(c2ccc3[nH]c(-c4ccnc5[nH]ncc45)c(C(C)C)c3c2)CC1` [Example 864, 4-(3-isopropyl-5-(1-((4-methyl-1H-imidazol-5-yl)methyl)piperidin-4-yl)-1H-indol-2-yl)-1H-pyrazolo[3,4-b]pyridine], the 50% inhibitory concentration (IC50) is less than 100 nM on human TLR7, less than 100 nM against human TLR8 and 100 to 1000 nM on human TLR9.

For the compound `CC(C)c1c(-c2ccnc3[nH]ncc23)[nH]c2ccc(C3CCN(Cc4ncn(C)n4)CC3)cc12` [Example 865, 4-(3-isopropyl-5-(1-((1-methyl-1H-1,2,4-triazol-3-yl)methyl)piperidin-4-yl)-1H-indol-2-yl)-1H-pyrazolo[3,4-b]pyridine], the results for the IC50 at human TLR7, on human TLR8 and on human TLR9 were less than 100 nM, less than 100 nM and 1000 to 50000 nM, respectively.

Take `CC(C)c1c(-c2ccnc3[nH]ncc23)[nH]c2ccc(C3CCN(Cc4ccccn4)CC3)cc12` [Example 866, 4-(3-isopropyl-5-(1-(pyridin-2-ylmethyl)piperidin-4-yl)-1H-indol-2-yl)-1H-pyrazolo[3,4-b]pyridine]: the results for the concentration for half-maximal inhibition (IC50) against human TLR7, against human TLR8 and on human TLR9 were less than 100 nM, less than 100 nM and 1000 to 50000 nM, respectively.

On to `CCc1c(-c2ccnc3[nH]ncc23)[nH]c2ccc(C3CCN(Cc4ncco4)CC3)cc12` [Example 867, 2-((4-(3-ethyl-2-(1H-pyrazolo[3,4-b]pyridin-4-yl)-1H-indol-5-yl)piperidin-1-yl)methyl)oxazole], for which the figures for the IC50 on human TLR7, against human TLR8 and against human TLR9 were 100 to 1000 nM, 100 to 1000 nM and 1000 to 50000 nM, respectively.

As to `Cc1nc(CN2CCC(c3ccc4[nH]c(-c5ccnc6[nH]ncc56)c(C(C)C)c4c3)CC2)c2ccccn12` [Example 868, 4-(3-isopropyl-5-(1-((3-methylimidazo[1,5-a]pyridin-1-yl)methyl)piperidin-4-yl)-1H-indol-2-yl)-1H-pyrazolo[3,4-b]pyridine], the 50% inhibitory concentration (IC50) against human TLR7 is less than 100 nM; against human TLR8, less than 100 nM; at human TLR9, 100 to 1000 nM.
